Measured values from PMC10222378 (Pharmaceuticals, 2023).
Several values for one entry are separate records, joined by “and”; a condition that tells them apart may be missing. Equal values may be shown once. Entries after “also recorded” stand apart in the source; their conditions may differ. Read-outs that look alike come from different tables or passages of the source.

How the values were obtained:
human lymphocytes = experiment: CFSE lymphocyte proliferation assay after PHA activation; assay type: cell-based; conditions: 200 μM ClGBI
Description: In this method, following the loading of cells with CFSE dye, each round of cell division is apparent by the reduced dye content and consequent lower fluorescence intensity of the daughter cells. […] Peripheral blood mononuclear cells (PBMCs) were isolated from the heparinized blood of healthy donors (n = 3) using the Ficoll–Hypaque separation method. […] The cells were grown in a humidified chamber at 37 °C and 5% CO2 for 6 days. As a negative control, unstimulated CFSE-labeled PBMCs were cultured in the same condition. […] After 6 days of proliferation, the CFSE-labeled cells were collected and analyzed by flow cytometry in an ACEA NovoCyte 2000R cytometer (Agilent, Santa Clara, CA, USA).

hKV1.4-IR = hKV1.4-IR (Homo sapiens, UniProt P22459); experiment: Whole-cell patch clamp on hKV1.4-IR in CHO cells; assay type: cell-based; conditions: estimated from single concentration (200 μM), bimolecular interaction assumed, n = 6, read-out: estimated Kd
hKV1.4-IR, sequence (P22459 149-653 limits assumed): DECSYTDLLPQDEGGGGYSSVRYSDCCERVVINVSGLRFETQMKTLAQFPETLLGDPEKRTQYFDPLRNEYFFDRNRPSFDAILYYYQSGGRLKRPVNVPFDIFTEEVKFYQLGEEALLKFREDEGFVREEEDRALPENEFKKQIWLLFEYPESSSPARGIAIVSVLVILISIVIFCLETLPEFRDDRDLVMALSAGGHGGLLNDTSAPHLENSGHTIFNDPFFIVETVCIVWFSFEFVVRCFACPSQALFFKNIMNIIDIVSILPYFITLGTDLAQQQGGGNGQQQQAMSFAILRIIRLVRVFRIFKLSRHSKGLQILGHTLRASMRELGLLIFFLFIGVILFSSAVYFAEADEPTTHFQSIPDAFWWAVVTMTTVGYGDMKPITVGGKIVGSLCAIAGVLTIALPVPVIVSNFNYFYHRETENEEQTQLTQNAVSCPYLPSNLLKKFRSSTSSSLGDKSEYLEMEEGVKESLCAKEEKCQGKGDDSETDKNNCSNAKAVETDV
Description: (§1) Pulses were delivered every 30 s. […] […]. Red dashed line indicates no effect.
(§2) In general, the holding potential was −120 mV.
(§3) […]. […] […].
(§4) […]. All data are presented as means ± SEM.

hKV1.5 = biological target: T1, hKV1.5 (Homo sapiens, UniProt P22460); experiment: Whole-cell patch clamp on hKV1.5 in CHO cells; assay type: cell-based; conditions: estimated from single concentration (200 μM), bimolecular interaction assumed, n = 4, read-out: estimated Kd
T1 construct: EYFP (pEYFP vector); expressed in transfected cells; host or cells: CHO cells, transient
Description: as §1, §2, §3, §4

hKV10.1 = biological target: T2, hKV10.1 (Homo sapiens, UniProt O95259); experiment: Whole-cell patch clamp on hKV10.1 in CHO cells; assay type: cell-based; conditions: estimated from single concentration (200 μM), bimolecular interaction assumed, n = 5, read-out: estimated Kd
T2 construct: host or cells: CHO cells, transient, co-transfected with a separate GFP plasmid
T2 sequence (O95259 1-989): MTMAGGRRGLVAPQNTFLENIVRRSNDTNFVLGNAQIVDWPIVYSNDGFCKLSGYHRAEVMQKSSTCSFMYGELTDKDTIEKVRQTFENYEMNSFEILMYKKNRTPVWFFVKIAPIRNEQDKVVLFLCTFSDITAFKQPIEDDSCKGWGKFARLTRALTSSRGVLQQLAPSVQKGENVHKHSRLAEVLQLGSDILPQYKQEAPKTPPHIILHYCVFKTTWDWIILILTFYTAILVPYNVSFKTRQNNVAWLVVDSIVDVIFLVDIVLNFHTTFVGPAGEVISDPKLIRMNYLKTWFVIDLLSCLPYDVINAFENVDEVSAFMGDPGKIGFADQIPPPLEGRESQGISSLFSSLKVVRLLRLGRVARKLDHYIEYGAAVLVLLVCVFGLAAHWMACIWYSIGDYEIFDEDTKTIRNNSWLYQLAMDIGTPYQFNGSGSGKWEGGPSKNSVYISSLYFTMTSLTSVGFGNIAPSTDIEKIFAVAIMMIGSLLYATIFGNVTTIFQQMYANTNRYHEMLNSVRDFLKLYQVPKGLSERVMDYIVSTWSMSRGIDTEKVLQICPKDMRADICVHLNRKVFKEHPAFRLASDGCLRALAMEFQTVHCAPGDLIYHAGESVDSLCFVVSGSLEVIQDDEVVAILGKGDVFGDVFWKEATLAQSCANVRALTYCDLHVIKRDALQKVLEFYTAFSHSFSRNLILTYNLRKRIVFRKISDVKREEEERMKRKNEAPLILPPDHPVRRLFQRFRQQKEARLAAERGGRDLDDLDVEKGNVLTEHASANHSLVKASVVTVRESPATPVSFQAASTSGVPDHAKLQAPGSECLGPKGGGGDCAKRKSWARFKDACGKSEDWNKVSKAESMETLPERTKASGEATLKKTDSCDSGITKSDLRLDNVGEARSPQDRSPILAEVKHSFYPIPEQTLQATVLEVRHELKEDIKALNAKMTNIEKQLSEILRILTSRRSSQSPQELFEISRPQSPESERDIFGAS
Description: as §1, §2, §3, §4

hKCa3.1 = biological target: T3, hKCa3.1 (Homo sapiens, UniProt O15554); experiment: Whole-cell patch clamp on hKCa3.1 in CHO cells; assay type: cell-based
T3 construct: expressed in transfected cells; host or cells: CHO cells, transient
Description: as §1, §2, §3, §4

hNaV1.4 = biological target: T4, hNaV1.4 (Homo sapiens, UniProt P35499); experiment: Whole-cell patch clamp on hNaV1.4 stably expressed in HEK293 cells; assay type: cell-based; conditions: estimated from single concentration (200 μM), bimolecular interaction assumed, n = 4, read-out: estimated Kd
T4 construct: expressed in transfected cells
Description: as §1, §2, §3, §4

hNaV1.5 = biological target: T5, hNaV1.5 (Homo sapiens, UniProt Q14524); experiment: Whole-cell patch clamp on hNaV1.5 in CHO cells; assay type: cell-based; conditions: estimated from single concentration (200 μM), bimolecular interaction assumed, n = 6, read-out: estimated Kd
T5 construct: expressed in transfected cells; host or cells: CHO cells, transient
T5 sequence (Q14524 whole entry): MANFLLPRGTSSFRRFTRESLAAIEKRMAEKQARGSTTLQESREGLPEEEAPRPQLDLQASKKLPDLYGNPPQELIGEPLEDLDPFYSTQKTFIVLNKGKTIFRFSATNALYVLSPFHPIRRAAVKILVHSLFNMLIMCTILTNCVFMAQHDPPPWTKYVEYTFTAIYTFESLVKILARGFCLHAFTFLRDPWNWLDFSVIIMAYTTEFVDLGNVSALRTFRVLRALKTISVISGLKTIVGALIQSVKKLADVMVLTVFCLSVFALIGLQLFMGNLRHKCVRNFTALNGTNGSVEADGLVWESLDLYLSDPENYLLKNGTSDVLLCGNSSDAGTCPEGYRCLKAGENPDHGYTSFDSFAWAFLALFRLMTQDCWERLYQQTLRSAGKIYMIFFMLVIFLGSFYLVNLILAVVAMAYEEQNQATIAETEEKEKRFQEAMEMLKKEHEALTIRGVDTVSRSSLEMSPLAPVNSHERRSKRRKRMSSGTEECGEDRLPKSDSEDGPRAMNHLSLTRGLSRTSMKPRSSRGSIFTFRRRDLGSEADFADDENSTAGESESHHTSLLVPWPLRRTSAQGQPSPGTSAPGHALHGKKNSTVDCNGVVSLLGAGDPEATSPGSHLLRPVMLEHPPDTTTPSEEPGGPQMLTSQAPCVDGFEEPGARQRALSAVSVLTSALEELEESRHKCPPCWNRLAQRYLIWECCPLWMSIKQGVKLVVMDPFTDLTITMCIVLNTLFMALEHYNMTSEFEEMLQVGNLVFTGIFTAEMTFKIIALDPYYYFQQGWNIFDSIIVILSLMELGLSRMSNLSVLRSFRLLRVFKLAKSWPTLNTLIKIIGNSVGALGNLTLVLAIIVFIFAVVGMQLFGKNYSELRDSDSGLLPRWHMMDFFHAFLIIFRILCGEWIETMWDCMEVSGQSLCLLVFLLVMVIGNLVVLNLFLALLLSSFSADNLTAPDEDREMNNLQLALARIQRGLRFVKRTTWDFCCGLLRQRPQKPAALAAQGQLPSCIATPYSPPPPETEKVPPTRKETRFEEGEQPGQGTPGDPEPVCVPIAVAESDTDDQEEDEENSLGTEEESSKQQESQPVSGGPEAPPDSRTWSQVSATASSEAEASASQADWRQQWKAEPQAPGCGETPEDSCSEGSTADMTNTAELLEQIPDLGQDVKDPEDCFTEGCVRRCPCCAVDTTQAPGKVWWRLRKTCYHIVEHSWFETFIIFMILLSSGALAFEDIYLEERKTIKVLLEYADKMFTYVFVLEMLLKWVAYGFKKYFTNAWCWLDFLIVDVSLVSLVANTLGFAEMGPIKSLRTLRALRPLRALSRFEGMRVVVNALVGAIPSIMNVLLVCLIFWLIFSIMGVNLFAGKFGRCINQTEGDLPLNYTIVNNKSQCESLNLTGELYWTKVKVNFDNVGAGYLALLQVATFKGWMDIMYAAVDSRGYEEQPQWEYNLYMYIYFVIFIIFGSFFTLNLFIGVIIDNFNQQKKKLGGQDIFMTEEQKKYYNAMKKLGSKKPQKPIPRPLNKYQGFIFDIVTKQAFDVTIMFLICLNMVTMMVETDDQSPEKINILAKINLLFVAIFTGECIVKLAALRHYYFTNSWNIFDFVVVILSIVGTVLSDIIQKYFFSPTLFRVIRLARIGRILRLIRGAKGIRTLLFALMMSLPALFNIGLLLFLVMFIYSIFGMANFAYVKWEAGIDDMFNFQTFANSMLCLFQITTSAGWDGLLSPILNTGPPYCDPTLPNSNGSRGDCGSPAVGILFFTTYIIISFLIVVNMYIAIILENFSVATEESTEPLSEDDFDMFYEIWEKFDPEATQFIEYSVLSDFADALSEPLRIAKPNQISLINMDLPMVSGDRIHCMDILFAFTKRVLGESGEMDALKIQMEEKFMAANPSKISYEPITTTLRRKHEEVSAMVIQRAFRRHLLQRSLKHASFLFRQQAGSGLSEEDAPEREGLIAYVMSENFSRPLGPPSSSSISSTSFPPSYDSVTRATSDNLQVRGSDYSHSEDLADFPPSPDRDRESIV
Description: as §1, §2, §3, §4

[1] = biological target: voltage-gated proton (H+) channel (HV1); design: method as in PMID 24912149; conditions: known HV1 inhibitor, value quoted in abstract; amphibian expression system; cited from earlier work
hKV11.1 (hERG) = hKV11.1 (hERG) (Homo sapiens, UniProt Q12809); experiment: in vitro; conditions: HEK293 cells stably expressing hKV11.1 (hERG), pH 7.35
hKV11.1 (hERG), sequence (Q12809 whole entry): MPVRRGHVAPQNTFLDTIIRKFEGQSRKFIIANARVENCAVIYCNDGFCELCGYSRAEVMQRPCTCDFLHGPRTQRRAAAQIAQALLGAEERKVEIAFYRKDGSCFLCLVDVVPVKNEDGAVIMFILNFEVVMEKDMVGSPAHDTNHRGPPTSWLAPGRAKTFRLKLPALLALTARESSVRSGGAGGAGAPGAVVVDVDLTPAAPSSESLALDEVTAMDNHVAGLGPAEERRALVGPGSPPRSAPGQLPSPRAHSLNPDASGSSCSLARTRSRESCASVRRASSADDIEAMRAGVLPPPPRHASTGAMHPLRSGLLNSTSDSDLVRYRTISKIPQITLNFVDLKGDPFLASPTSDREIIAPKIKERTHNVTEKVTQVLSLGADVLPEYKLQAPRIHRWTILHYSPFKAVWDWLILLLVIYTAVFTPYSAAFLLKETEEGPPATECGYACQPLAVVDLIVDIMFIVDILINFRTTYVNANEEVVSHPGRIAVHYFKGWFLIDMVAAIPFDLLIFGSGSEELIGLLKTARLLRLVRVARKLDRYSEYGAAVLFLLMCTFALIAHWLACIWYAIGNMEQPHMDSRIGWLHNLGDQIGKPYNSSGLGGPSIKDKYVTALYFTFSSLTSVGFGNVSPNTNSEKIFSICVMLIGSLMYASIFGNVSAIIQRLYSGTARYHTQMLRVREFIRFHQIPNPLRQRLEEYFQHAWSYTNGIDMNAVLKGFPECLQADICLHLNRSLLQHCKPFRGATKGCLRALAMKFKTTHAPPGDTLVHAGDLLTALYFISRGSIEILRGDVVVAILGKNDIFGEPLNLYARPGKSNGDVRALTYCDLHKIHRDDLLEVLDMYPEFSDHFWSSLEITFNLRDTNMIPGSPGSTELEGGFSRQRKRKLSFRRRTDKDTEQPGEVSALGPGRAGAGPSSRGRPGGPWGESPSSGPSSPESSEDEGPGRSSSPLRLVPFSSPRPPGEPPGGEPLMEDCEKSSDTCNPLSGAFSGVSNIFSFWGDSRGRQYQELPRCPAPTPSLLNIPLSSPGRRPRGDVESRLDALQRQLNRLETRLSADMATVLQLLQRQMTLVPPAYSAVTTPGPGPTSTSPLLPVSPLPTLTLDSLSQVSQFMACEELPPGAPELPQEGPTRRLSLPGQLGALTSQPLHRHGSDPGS

[2] = system: hKV1.1, hKV1.4-IR, hKV1.5, hKV10.1, hKV11.1, hKCa3.1, hNaV1.4, hNaV1.5; experiment: in vitro; conditions: human
Description: (A–D) Currents were evoked from holding potentials of –100 mV by depolarizations to +50 mV for the time interval indicated on the panels. […] (E) hKV11.1 currents were measured with a voltage step from a holding potential of –80 mV to +20 mV, followed by a step to –40 mV, during which the peak current was measured. Pulses were delivered every 30 s. […] Red dashed line indicates no effect. Bars represent the mean of 3–8 independent measurements; error bars indicate the SEM.

hKV1.3 [3] = biological target: T6, hKV1.3 (Homo sapiens, UniProt P22001); experiment: Whole-cell patch clamp on hKV1.3 in activated human lymphocytes; assay type: cell-based; design: endogenous in cells
T6 sequence (P22001 whole entry): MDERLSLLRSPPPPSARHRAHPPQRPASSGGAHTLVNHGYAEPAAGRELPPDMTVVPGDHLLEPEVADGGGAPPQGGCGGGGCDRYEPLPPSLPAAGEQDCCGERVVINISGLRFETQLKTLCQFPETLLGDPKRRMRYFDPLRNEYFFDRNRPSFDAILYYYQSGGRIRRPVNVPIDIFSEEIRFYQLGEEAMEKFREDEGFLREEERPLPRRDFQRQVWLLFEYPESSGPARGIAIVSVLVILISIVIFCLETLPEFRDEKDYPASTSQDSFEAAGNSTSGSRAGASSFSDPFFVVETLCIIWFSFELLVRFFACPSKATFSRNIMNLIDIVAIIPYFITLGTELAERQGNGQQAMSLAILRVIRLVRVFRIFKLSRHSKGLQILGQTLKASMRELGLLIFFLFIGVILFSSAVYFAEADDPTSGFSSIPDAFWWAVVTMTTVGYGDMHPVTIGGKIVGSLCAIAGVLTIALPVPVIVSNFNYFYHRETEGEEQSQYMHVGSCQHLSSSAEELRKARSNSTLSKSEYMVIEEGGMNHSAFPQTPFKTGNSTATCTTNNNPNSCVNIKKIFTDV
Description: The essential role of voltage-gated KV1.3 channels in T cell activation and proliferation is well-documented, so we tested whether the proliferation was suppressed in part via a KV1.3 blockade. […]. The open probability of the channel at +50 mV is maximal, and the relatively short duration of the depolarizing periods prevented inactivation. The time between voltage pulses was set to 15 s to avoid the cumulative inactivation of hKV1.3 channels. Under the given experimental conditions (i.e., the voltage protocol used and the lack of Ca^2+ in the pipette solution), the whole-cell currents were conducted exclusively by hKV1.3 channels. […]. Human peripheral blood […] (PBMCs) were isolated from venous blood obtained from anonymized healthy donors. The peripheral blood mononuclear cells were isolated by Histopaque1077 (Sigma-Aldrich Hungary, Budapest, Hungary) density gradient centrifugation. The cells obtained were resuspended in Roswell Park Memorial Institute (RPMI) 1640 medium (Gibco, Cat# 11875085) containing 10% fetal calf serum (FCS, Sigma-Aldrich, St. Louis, MO, USA), 100 μg/mL penicillin, 100 μg/mL streptomycin, and 2 mM L-glutamine, seeded in a 24-well culture plate at a density of 5–6 × 10^5 cells/mL, and grown in a 5% CO2 incubator at 37 °C for 3–5 days. Phytohemagglutinin A (PHA, Sigma-Aldrich, St. Louis, MO, USA) was also added at a concentration of 8–12 μg/mL to the medium to amplify the expression level of KV1.3. CHO cells and PBMCs were gently washed twice with 2 mL of ECS (see below) for the patch clamp experiments. hKV1.3 currents were recorded on activated lymphocytes 3 to 4 days after activation.
as §2, §3, §4
To examine the binding kinetics, RCF was plotted as a function of time. The association time constant (τon) was determined by fitting the data points with a single exponential function, RCF=RCF0×e^−t/τon+C where RCF0 is the RCF value before the addition of the drug, and C is a constant term.

hKV1.1 [4] = biological target: T7, hKV1.1 (Homo sapiens, UniProt Q09470); experiment: Whole-cell patch clamp on hKV1.1 in CHO cells; assay type: cell-based; design: host or cells: CHO cells, transient; conditions: estimated from single concentration (200 μM), bimolecular interaction assumed, n = 5, read-out: estimated Kd
T7 sequence (Q09470 whole entry): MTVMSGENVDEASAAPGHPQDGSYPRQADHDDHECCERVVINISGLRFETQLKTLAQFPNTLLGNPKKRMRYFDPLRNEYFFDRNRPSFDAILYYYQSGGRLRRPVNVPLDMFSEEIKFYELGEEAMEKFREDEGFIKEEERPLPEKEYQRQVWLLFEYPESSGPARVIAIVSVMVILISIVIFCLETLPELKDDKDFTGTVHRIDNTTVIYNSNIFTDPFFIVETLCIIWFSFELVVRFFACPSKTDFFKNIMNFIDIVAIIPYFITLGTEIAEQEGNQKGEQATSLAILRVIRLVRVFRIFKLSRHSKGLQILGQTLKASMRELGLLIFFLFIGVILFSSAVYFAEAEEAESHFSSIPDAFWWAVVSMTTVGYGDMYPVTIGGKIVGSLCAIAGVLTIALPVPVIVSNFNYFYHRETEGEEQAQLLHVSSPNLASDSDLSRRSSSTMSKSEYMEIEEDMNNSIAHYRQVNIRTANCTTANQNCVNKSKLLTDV
Description: as §1, §2, §3, §4

hKV1.3 [5] = biological target: T6, hKV1.3; conditions: read-out: Kd (concentration of positive control equivalent to its Kd), no reference given; cited from earlier work
hKV1.1 [6] = biological target: T7, hKV1.1; conditions: read-out: Kd (concentration of positive control equivalent to its Kd), no reference given; cited from earlier work

N=C(N)Nc1nc2ccc(Cl)cc2[nH]1 [ClGBI, 5-chloro-2-guanidinobenzimidazole]
effect on lymphocyte proliferation (human lymphocytes): completely blocked; also recorded: significant suppression | potency estimated from few doses (hKV1.4-IR): 188 ± 38 µM | potency estimated from few doses (hKV1.5): 310 ± 43.6 µM | potency estimated from few doses (hKV10.1): 77.5 ± 14.2 µM | inhibition of KCa3.1 (hKCa3.1; 200 μM ClGBI): inhibited KCa3.1 to a small extent | potency estimated from few doses (hKCa3.1; CHO, estimated from single concentration (200 μM), bimolecular interaction assumed, n = 5, read-out: estimated Kd): 894 ± 134 µM | potency estimated from few doses (hNaV1.4): 591 ± 123 µM | potency estimated from few doses (hNaV1.5): 187 ± 35.7 µM | Kd [1]: ~26 µM | potency estimated from few doses (hKV11.1 (hERG)): 12 ± 2.1 µM | Kd [2]: 12 to 894 µM | time to reach block saturation (hKV1.3 [3]; 200 μM ClGBI): 50 to 100 s | reduction in current amplitude (hKV1.3 [3]; 200 μM ClGBI, equilibrium block): ~ 75% | remaining current fraction (RCF) (hKV1.3 [3]; 200 μM ClGBI, equilibrium block, n = 9): 0.25 ± 0.01 | association time constant τon (hKV1.3 [3]; 200 μM ClGBI, single exponential fit, n = 3): 22.1 ± 2.7 s | reversibility of block on washout (hKV1.3 [3]; after 200 μM ClGBI, perfusion with ClGBI-free ECS): complete recovery from block; also recorded: complete recovery from current inhibition | Hill coefficient nH (hKV1.3 [3]; two-parameter Hill fit of RCF dose-response): 1.1 ± 0.07 | Kd (hKV1.3 [3]; two-parameter Hill fit of RCF dose-response, human lymphocytes): 72.4 µM and ~72 µM | potency estimated from few doses (hKV1.1 [4]): 324 ± 13.1 µM

CC[N+](CC)(CC)CC [TEA^+, tetraethylammonium]
Kd (hKV1.3 [5]): 10000 µM | Kd (hKV1.1 [6]): 300 µM
